Values quoted from earlier work as cited in patent publication US8968725B2, “Genipin cross-linked fibrin gels” (University of Vermont and State Agricultural College, priority 2010, dated 2015).

Tested on: mice
Details: mouse, in vivo, iv

Compound: COC(=O)C1=CO[C@@H](O)[C@H]2C(CO)=CC[C@H]12 [Genipin, Methyl (1R,2R,6S)-2-hydroxy-9-(hydroxymethyl)-3-oxabicyclo[4.3.0]nona-4,8-diene-5-carboxylate]
- LD50: 382 mg/kg
